Experimental data published in patent publication US11945822B2, “Pyrazolo-triazine and/or pyrazolo-pxrimidine derivatives as selective inhibitor of cyclin dependent kinase” (QURIENT CO., LTD., priority 2018, dated 2024).
pIC50: −log10 of the molar value.

Assays:
CDK2/Cyclin A = target: T1, CDK2/Cyclin A (Homo sapiens, UniProt P24941); test: Enzymatic assay for CDK2 (FRET based LANCE Ultra kinase assay); type: biochemical; settings: read-out: CDK2 enzymatic activity (IC50 range)
T1 construct: purchased Invitrogen PV6290
Outline: (§1)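 Each CDK complex ([…]) phosphorylated 68 nM ULight-MBP peptide with ATP at Km for 60 min at 23° C., against 8 compound doses (4-fold dilutions). EDTA/Eu-anti-phospho-MBP detection, 60 min, then TR-FRET emission at 615 and 665 nm.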

H460 = test: Cellular H460 viability assay (CellTiter-Glo, 72 hours); type: cell-based; settings: Homo sapiens, NCI-H460
Outline: (§2)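 Cells plated in 96 wells and exposed to compound 72 h at 37 °C, 5% CO2, final DMSO below 0.1%, DMSO control. Viability by CellTiter-Glo luminescence, duplicate.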

CDK1/Cyclin B = target: T2, CDK1/Cyclin B (Homo sapiens, UniProt P06493); test: Enzymatic assay for CDK1 (FRET based LANCE Ultra kinase assay); type: biochemical; settings: read-out: CDK1 enzymatic activity (IC50 range)
T2 construct: purchased Invitrogen PR4768C
T2 sequence (P06493 whole entry): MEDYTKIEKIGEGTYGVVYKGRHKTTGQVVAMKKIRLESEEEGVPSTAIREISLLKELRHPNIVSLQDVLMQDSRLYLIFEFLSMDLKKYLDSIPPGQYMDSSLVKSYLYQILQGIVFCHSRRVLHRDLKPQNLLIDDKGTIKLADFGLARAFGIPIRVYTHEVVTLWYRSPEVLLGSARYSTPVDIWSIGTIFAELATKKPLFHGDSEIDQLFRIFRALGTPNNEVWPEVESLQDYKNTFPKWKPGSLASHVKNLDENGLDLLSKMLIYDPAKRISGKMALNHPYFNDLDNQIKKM
T2 sequence (P14635 whole entry partner): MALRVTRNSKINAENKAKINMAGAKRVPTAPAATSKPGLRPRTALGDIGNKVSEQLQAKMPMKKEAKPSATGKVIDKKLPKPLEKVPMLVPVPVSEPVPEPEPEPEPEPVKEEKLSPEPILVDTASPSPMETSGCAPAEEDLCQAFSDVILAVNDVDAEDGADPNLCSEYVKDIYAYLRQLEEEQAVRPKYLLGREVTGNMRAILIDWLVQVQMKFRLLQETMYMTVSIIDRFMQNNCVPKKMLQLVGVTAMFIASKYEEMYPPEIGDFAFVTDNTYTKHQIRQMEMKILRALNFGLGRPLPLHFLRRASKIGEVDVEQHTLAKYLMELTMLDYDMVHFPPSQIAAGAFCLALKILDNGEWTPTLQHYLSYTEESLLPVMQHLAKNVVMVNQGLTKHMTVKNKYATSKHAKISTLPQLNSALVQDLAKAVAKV
Outline: as §1

MOLT-4 = test: Cellular MOLT-4 viability assay (CellTiter-Glo, 72 hours); type: cell-based; settings: Homo sapiens, MOLT4 viability assay
Outline: as §2

CDK7/Cyclin H/MNAT1 = target: T3, CDK7/Cyclin H/MNAT1 (Homo sapiens, UniProt P50613); test: Enzymatic assay for CDK7 (FRET based LANCE Ultra kinase assay); type: biochemical; settings: for pIC50: read-out: CDK7 enzymatic activity (IC50 range)
T3 construct: purchased Invitrogen PR6749B
T3 sequence (P50613 whole entry): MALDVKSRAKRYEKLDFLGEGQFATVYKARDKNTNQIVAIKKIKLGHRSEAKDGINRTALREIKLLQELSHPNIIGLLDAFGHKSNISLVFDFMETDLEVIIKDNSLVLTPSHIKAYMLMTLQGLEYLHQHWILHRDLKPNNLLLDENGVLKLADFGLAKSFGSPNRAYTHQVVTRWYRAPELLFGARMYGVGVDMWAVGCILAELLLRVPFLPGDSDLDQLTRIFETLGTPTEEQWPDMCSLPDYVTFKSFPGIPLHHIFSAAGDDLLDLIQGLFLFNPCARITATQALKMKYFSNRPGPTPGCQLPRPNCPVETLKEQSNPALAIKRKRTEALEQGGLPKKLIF
T3 sequence (P51946 whole entry partner): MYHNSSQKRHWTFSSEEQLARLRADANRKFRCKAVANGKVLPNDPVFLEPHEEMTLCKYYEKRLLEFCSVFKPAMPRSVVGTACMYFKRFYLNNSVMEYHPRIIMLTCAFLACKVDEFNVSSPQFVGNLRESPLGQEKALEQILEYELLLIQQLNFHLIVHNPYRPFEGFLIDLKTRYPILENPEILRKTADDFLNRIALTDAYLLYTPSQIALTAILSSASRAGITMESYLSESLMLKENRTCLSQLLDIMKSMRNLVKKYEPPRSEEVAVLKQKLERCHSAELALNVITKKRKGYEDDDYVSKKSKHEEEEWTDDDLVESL
T3 sequence (P51948 whole entry partner): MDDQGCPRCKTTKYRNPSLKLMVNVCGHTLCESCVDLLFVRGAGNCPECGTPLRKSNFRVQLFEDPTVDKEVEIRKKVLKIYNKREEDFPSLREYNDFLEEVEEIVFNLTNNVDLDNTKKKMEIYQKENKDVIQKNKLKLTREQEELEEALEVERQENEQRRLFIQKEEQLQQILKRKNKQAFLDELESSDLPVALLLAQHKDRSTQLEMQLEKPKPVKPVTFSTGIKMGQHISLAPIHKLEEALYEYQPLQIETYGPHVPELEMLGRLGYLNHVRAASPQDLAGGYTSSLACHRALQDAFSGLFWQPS
Outline: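 LANCE Ultra TR-FRET kinase assay using a ULight-labeled peptide substrate and a Eu-labeled anti-phospho antibody, with ATP at its Km. Purified CDK/cyclin complex was added to compound after brief centrifugation.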

MV4-11 = test: Cellular MV4-11 viability assay (CellTiter-Glo, 72 hours); type: cell-based; settings: Homo sapiens
Outline: as §2

CDK5/p25 = target: T4, CDK5/p25 (Homo sapiens, UniProt Q00535); test: Enzymatic assay for CDK5 (FRET based LANCE Ultra kinase assay); type: biochemical; settings: read-out: CDK5 enzymatic activity (IC50 range)
T4 construct: purchased Invitrogen PR8543B
T4 sequence (Q00535 whole entry): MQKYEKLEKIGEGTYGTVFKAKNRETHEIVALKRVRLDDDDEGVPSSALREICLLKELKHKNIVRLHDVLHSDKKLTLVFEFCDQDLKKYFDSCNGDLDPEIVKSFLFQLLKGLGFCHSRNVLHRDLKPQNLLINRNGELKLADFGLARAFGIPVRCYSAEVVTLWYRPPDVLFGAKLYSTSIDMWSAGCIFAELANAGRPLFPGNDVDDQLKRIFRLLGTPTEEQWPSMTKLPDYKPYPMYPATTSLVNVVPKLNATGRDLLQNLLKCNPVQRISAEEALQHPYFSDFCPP
T4 sequence (Q15078 99-307 partner limits assumed): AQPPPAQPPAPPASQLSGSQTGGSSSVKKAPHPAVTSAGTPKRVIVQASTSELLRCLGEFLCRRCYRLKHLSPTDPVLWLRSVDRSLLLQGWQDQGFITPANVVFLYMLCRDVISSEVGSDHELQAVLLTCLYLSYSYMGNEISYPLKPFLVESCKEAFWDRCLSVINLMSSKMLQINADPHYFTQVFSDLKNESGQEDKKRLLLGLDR
Outline: as §1

RPMI-8226 = test: Cellular RPMI-8226 viability assay (CellTiter-Glo, 72 hours); type: cell-based; settings: Homo sapiens
Outline: as §2

HCT116 = test: Cellular HCT116 viability assay (CellTiter-Glo, 72 hours); type: cell-based; settings: Homo sapiens, HCT-116
Outline: as §2

Structure (SMILES)	pIC50 (CDK2/Cyclin A)	pIC50 (H460)	pIC50 (CDK1/Cyclin B)	pIC50 (MOLT-4)	CDK1/CDK7: Selectivity of CDK7 inhibition over CDK1 inhibition (CDK7/Cyclin H/MNAT1)	CDK2/CDK7: Selectivity of CDK7 inhibition over CDK2 inhibition (CDK7/Cyclin H/MNAT1)	CDK5/CDK7: Selectivity of CDK7 inhibition over CDK5 inhibition (CDK7/Cyclin H/MNAT1)	pIC50 (CDK7/Cyclin H/MNAT1)	pIC50 (MV4-11)	pIC50 (CDK5/p25)	pIC50 (RPMI-8226)	pIC50 (HCT116)
NC1CCN(c2nc(NCc3ccccc3-n3cccn3)n3ncc(Br)c3n2)CC1 [Compound 18]	6.00 to 7.00	> 6.00	6.00 to 7.00	5.00 to 6.00	B (B=less than 200 fold, but greater than 20 fold)	B (B=less than 200 fold, but greater than 20 fold)	C (C=less than 20 fold)	> 7.00	> 6.00	> 7.00	> 6.00	> 6.00
CC(C)c1cnn2c(NCc3ccccc3-c3nc4ccccc4o3)nc(N3CCC(N)CC3)nc12 [Compound 97]	6.00 to 7.00	> 6.00	6.00 to 7.00	5.00 to 6.00	B (B=less than 200 fold, but greater than 20 fold)	B (B=less than 200 fold, but greater than 20 fold)	B (B=less than 200 fold, but greater than 20 fold)	> 7.00	> 6.00	6.00 to 7.00	> 6.00	> 6.00
CC(C)c1cnn2c(NCc3ccccc3-c3nc4ccccc4[nH]3)nc(N3CCC(N)CC3)nc12 [Compound 98]	6.00 to 7.00	> 6.00	6.00 to 7.00	> 6.00	A (A=greater than 200 fold)	B (B=less than 200 fold, but greater than 20 fold)	B (B=less than 200 fold, but greater than 20 fold)	> 7.00	> 6.00	> 7.00	> 6.00	> 6.00
CC(C)Oc1ccc2cn(-c3ccccc3CNc3nc(N4CCC(N)CC4)nc4c(C(C)C)cnn34)nc2c1 [Compound 107]	6.00 to 7.00	> 6.00	< 6.00	5.00 to 6.00	A (A=greater than 200 fold)	A (A=greater than 200 fold)	B (B=less than 200 fold, but greater than 20 fold)	> 7.00	> 6.00	6.00 to 7.00	> 6.00	–
CC(C)c1cnn2c(NCc3ccccc3-n3cc4c(n3)CCCC4)nc(N3CCC(N)CC3)nc12 [Compound 109]	6.00 to 7.00	> 6.00	< 6.00	> 6.00	A (A=greater than 200 fold)	A (A=greater than 200 fold)	B (B=less than 200 fold, but greater than 20 fold)	> 7.00	> 6.00	6.00 to 7.00	> 6.00	> 6.00
CC(C)c1cnn2c(NCc3ccccc3-c3cc4ccccc4[nH]3)nc(OC3CCN(C)CC3)nc12 [Compound 115]	6.00 to 7.00	–	< 6.00	5.00 to 6.00	A (A=greater than 200 fold)	B (B=less than 200 fold, but greater than 20 fold)	B (B=less than 200 fold, but greater than 20 fold)	> 7.00	> 6.00	6.00 to 7.00	5.00 to 6.00	–
CC(C)c1cnn2c(NCc3ccccc3-c3ncc4ccccc4n3)nc(N3CCC(N)CC3)nc12 [Compound 77]	6.00 to 7.00	> 6.00	6.00 to 7.00	5.00 to 6.00	A (A=greater than 200 fold)	B (B=less than 200 fold, but greater than 20 fold)	B (B=less than 200 fold, but greater than 20 fold)	> 7.00	> 6.00	6.00 to 7.00	> 6.00	–
CC(C)c1cnn2c(NCc3ccccc3-c3nccc4cc(NC(=O)CCCN(C)C)ccc34)nc(N3CCC(N)CC3)nc12 [Compound 92]	< 6.00	–	< 6.00	< 5.00	A (A=greater than 200 fold)	A (A=greater than 200 fold)	A (A=greater than 200 fold)	> 7.00	> 6.00	< 6.00	5.00 to 6.00	–
CC(C)c1cnn2c(NCc3ccccc3-n3cc4cc(Cl)ccc4n3)nc(N3CCC(N)CC3)nc12 [Compound 103]	6.00 to 7.00	> 6.00	< 6.00	5.00 to 6.00	A (A=greater than 200 fold)	B (B=less than 200 fold, but greater than 20 fold)	B (B=less than 200 fold, but greater than 20 fold)	> 7.00	> 6.00	6.00 to 7.00	> 6.00	–
CC(C)c1cnn2c(NCc3ccccc3-c3cccs3)nc(N3CCC(N)CC3)nc12 [Compound 44]	6.00 to 7.00	> 6.00	6.00 to 7.00	5.00 to 6.00	B (B=less than 200 fold, but greater than 20 fold)	B (B=less than 200 fold, but greater than 20 fold)	B (B=less than 200 fold, but greater than 20 fold)	> 7.00	–	> 7.00	> 6.00	–
CC(C)c1cnn2c(NCc3ccccc3-c3cn4ccccc4n3)nc(N3CCC(N)CC3)nc12 [Compound 110]	> 7.00	> 6.00	6.00 to 7.00	> 6.00	B (B=less than 200 fold, but greater than 20 fold)	B (B=less than 200 fold, but greater than 20 fold)	C (C=less than 20 fold)	> 7.00	> 6.00	> 7.00	> 6.00	–
CC(C)c1cnn2c(NCc3cccc4ccc(C5CC5)nc34)nc(N3CCC(N)CC3)nc12 [Compound 71]	< 6.00	5.00 to 6.00	< 6.00	5.00 to 6.00	B (B=less than 200 fold, but greater than 20 fold)	B (B=less than 200 fold, but greater than 20 fold)	B (B=less than 200 fold, but greater than 20 fold)	> 7.00	5.00 to 6.00	6.00 to 7.00	5.00 to 6.00	–
CC(C)c1cnn2c(NCc3ccccc3-c3cc4cccc(F)c4[nH]3)nc(N3CCC(N)CC3)nc12 [Compound 113]	–	> 6.00	–	> 6.00	–	–	–	–	> 6.00	–	> 6.00	–
CCCc1ccc2nn(-c3ccccc3CNc3nc(N4CCC(N)CC4)nc4c(C(C)C)cnn34)cc2c1 [Compound 106]	6.00 to 7.00	> 6.00	< 6.00	5.00 to 6.00	A (A=greater than 200 fold)	B (B=less than 200 fold, but greater than 20 fold)	B (B=less than 200 fold, but greater than 20 fold)	> 7.00	> 6.00	6.00 to 7.00	> 6.00	–
CC(C)c1cnn2c(NCc3ccccc3-c3cc4ccccc4cn3)nc(N3CCC(N)CC3)nc12 [Compound 78]	6.00 to 7.00	> 6.00	6.00 to 7.00	5.00 to 6.00	A (A=greater than 200 fold)	B (B=less than 200 fold, but greater than 20 fold)	B (B=less than 200 fold, but greater than 20 fold)	> 7.00	> 6.00	> 7.00	> 6.00	–
CC(C)c1cnn2c(NCc3ccccc3-n3cccn3)nc(-c3ccc(Cl)c(C4CCNCC4)c3)nc12 [Compound 170]	< 6.00	> 6.00	< 6.00	5.00 to 6.00	A (A=greater than 200 fold)	B (B=less than 200 fold, but greater than 20 fold)	B (B=less than 200 fold, but greater than 20 fold)	> 7.00	> 6.00	6.00 to 7.00	5.00 to 6.00	–
